# Where two headings read alike, the source gives them in different places.
# How the values were obtained:
# Test in all cases: Etest MIC of indicator carbapenems on MH II agar without/with PMBN
# Type in all cases: cell-based
# [1] = system: K. pneumoniae 1002015
# Procedure: (§1) The determinations of antibiotic MIC were carried out on solid culture media with the Etest® method. To do this, Etest® strips (bioMérieux, France) were used: • Etest® Imipenem IM 32, and • Etest® Ertapenem ETP 32, and also solid culture media, differing from one another by virtue of their non-inhibitory concentrations of PMBN.
# (§2) These solid culture media are prepared in Petri dishes (0=145 mm; V=50 ml) on a base of MH II Agar (Becton Dickinson®, United States), more or less supplemented with PMBN. The PMBN concentrations range from 0 up to concentrations equivalent to one fifth of the MIC of PMBN (⅕ MICPMBN).
# (§3) Using a swab and the Retro C80™ rota-plater (bioMérieux, France), the culture media were inoculated with the bacteria, originating from an inoculum of 0.5 McFarland, prepared in 0.85% NaCl solution from colonies subcultured the day before on MH II agar.
# (§4) The various Etest® strips are then deposited on the surface of the culture media. After 16 to 20 hours of incubation at 35° C., the MICS were read.
# (§5) To do this, imipenem and ertapenem were used as indicator carbapenems. Non-inhibitory concentrations of PMBN, equivalent to concentrations of one tenth ( 1/10), one eighth (⅛) and one fifth (⅕) of the MIC of PMBN, were applied.
# (§6) In the light of the MICPMBN values previously identified, very predominantly much higher than 300 μg/ml, the following standard concentrations were retained and applied to the bacterial strains to be tested: 50, 100, 150, 200 and 300 μg/ml.
# (§7) By way of indicator carbapenems according to the invention, in addition to imipenem (IM) and ertapenem (ETP), meropenem (MP) was also tested. Like the other two antibiotics, meropenem was used in the form of Etest® strips (Etest® Meropenem MP 32 from the company bioMérieux, France).
# (§8) The methods used to prepare the new culture media and to carry out the antibiotic-sensitivity tests are identical to those described above.
# [2] = system: K. pneumoniae 1204034
# Procedure: as §1, §2, §3, §4, §5, §6, §7, §8
# [3] = system: E. aerogenes 9306071
# Procedure: as §1, §2, §3, §4, §5, §6, §7, §8
# [4] = system: E. cloacae 9402034
# Procedure: as §1, §2, §3, §4, §5, §6, §7, §8
# [5] = system: E. aerogenes 9203076
# Procedure: as §1, §2, §3, §4, §5, §6, §7, §8
# [6] = system: E. aerogenes 1204048; details: in µg/mL
# Procedure: as §1, §2, §3, §4, §5, §6, §7, §8
# [7] = system: E. coli 1204043
# Procedure: as §1, §2, §3, §4, §5, §6, §7, §8
# [8] = system: E. cloacae 1008080 (IMP producer); details: in µg/mL
# Procedure, shortened: (§9)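 Etest imipenem/ertapenem/meropenem (IM 32, ETP 32, MP 32). Medium: MH II agar, PMBN 0 to ⅕ MIC. Inoculum: 0.5 McFarland, 0.85% NaCl, swabbed. Read: 16–20 h at 35° C.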
# [9] = system: E. aerogenes 1204050 (membrane impermeability); details: in µg/mL
# Procedure, shortened: as §9
# [10] = system: E. cloacae 1204051 (membrane impermeability)
# Procedure, shortened: as §9
# [11] = system: E. cloacae 1204053 (membrane impermeability)
# Procedure, shortened: as §9
smiles,measurement,setting,value
"C[C@@H](O)[C@H]1C(=O)N2C(C(=O)O)=C(SCCN=CN)C[C@H]12 [IM, imipenem]",MIC,"[1]; K. pneumoniae 1002015, [PMBN] 0, Table 3",2 µg/mL
same,MIC,"[1]; K. pneumoniae 1002015, [PMBN] MIC/5",0.25 µg/mL
same,MIC,"[1]; K. pneumoniae 1002015, [PMBN] MIC/8",0.25 µg/mL
same,MIC,"[1]; K. pneumoniae 1002015, [PMBN] MIC/10",0.5 µg/mL
same,MIC,"[1]; Klebsiella pneumoniae, 1002015, K. pneumoniae 1002015 (porin−), [PMBN] 0, Table 4, read-out: MIC",0.5 µg/mL
same,MIC,"[1]; Klebsiella pneumoniae, 1002015, K. pneumoniae 1002015 (porin−), [PMBN] 150 μg/ml, Table 4, read-out: MIC",0.38 µg/mL
same,MIC,"[1]; Klebsiella pneumoniae, 1002015, K. pneumoniae 1002015 (porin−), [PMBN] 200 μg/ml, Table 4, read-out: MIC",0.25 µg/mL
same,MIC,"[2]; K. pneumoniae 1204034 (membrane impermeability), [PMBN] 0, Table 4a",3 µg/mL
same,MIC,"[2]; K. pneumoniae 1204034 (membrane impermeability), [PMBN] 100, Table 4a",0.5 µg/mL
same,MIC,"[2]; K. pneumoniae 1204034 (membrane impermeability), [PMBN] 200, Table 4a",0.38 µg/mL
same,MIC,"[2]; K. pneumoniae 1204034 (membrane impermeability), [PMBN] 300, Table 4a",0.19 µg/mL
same,MIC,"[2]; K. pneumoniae 1204034, [PMBN] 0, Table 3",2 µg/mL
same,MIC,"[2]; K. pneumoniae 1204034, [PMBN] MIC/5",0.5 µg/mL
same,MIC,"[2]; K. pneumoniae 1204034, [PMBN] MIC/8",0.5 µg/mL
same,MIC,"[2]; K. pneumoniae 1204034, [PMBN] MIC/10",0.5 µg/mL
same,MIC,"[2]; Klebsiella pneumoniae, 1204034, K. pneumoniae 1204034 (porin−), [PMBN] 0, Table 4, read-out: MIC",2 µg/mL
same,MIC,"[2]; Klebsiella pneumoniae, 1204034, K. pneumoniae 1204034 (porin−), [PMBN] 150 μg/ml, Table 4, read-out: MIC",0.38 µg/mL
same,MIC,"[2]; Klebsiella pneumoniae, 1204034, K. pneumoniae 1204034 (porin−), [PMBN] 200 μg/ml, Table 4, read-out: MIC",0.38 µg/mL
same,MIC,"[3]; E. aerogenes 9306071 (membrane impermeability), [PMBN] 0, Table 4a",12 µg/mL
same,MIC,"[3]; E. aerogenes 9306071 (membrane impermeability), [PMBN] 100, Table 4a",6 µg/mL
same,MIC,"[3]; E. aerogenes 9306071 (membrane impermeability), [PMBN] 200, Table 4a",3 µg/mL
same,MIC,"[3]; E. aerogenes 9306071 (membrane impermeability), [PMBN] 300, Table 4a",2 µg/mL
same,MIC,"[3]; E. aerogenes 9306071, [PMBN] 0, Table 3",8 µg/mL
same,MIC,"[3]; E. aerogenes 9306071, [PMBN] MIC/5",2 µg/mL
same,MIC,"[3]; E. aerogenes 9306071, [PMBN] MIC/8",4 µg/mL
same,MIC,"[3]; E. aerogenes 9306071, [PMBN] MIC/10",4 µg/mL
same,MIC,"[4]; E. cloacae 9402034 (membrane impermeability), [PMBN] 0, Table 4a",> 32 µg/mL
same,MIC,"[4]; E. cloacae 9402034 (membrane impermeability), [PMBN] 100, Table 4a",8 µg/mL
same,MIC,"[4]; E. cloacae 9402034 (membrane impermeability), [PMBN] 200, Table 4a",12 µg/mL
same,MIC,"[4]; E. cloacae 9402034 (membrane impermeability), [PMBN] 300, Table 4a",12 µg/mL
same,MIC,"[4]; E. cloacae 9402034, [PMBN] 0, Table 3",16 µg/mL
same,MIC,"[4]; E. cloacae 9402034, [PMBN] MIC/5",8 µg/mL
same,MIC,"[4]; E. cloacae 9402034, [PMBN] MIC/8",8 µg/mL
same,MIC,"[4]; E. cloacae 9402034, [PMBN] MIC/10",8 µg/mL
same,MIC,"[5]; E. aerogenes 9203076 (membrane impermeability), [PMBN] 0, Table 4a, in µg/mL",8
same,MIC,"[5]; E. aerogenes 9203076 (membrane impermeability), [PMBN] 100, Table 4a, in µg/mL",16
same,MIC,"[5]; E. aerogenes 9203076 (membrane impermeability), [PMBN] 200, Table 4a, in µg/mL",4
same,MIC,"[5]; E. aerogenes 9203076 (membrane impermeability), [PMBN] 300, Table 4a, in µg/mL",4
same,MIC,"[5]; E. aerogenes 9203076, [PMBN] 0, Table 3, in µg/mL",8
same,MIC,"[5]; E. aerogenes 9203076, [PMBN] MIC/5, in µg/mL",2
same,MIC,"[5]; E. aerogenes 9203076, [PMBN] MIC/8, in µg/mL",2
same,MIC,"[5]; E. aerogenes 9203076, [PMBN] MIC/10, in µg/mL",2
same,MIC,"[5]; Klebsiella aerogenes, 9203076, E. aerogenes 9203076 (porin−), [PMBN] 0, Table 4, read-out: MIC",6 µg/mL
same,MIC,"[5]; Klebsiella aerogenes, 9203076, E. aerogenes 9203076 (porin−), [PMBN] 150 μg/ml, Table 4, read-out: MIC",3 µg/mL
same,MIC,"[5]; Klebsiella aerogenes, 9203076, E. aerogenes 9203076 (porin−), [PMBN] 200 μg/ml, Table 4, read-out: MIC",3 µg/mL
same,MIC,"[6]; E. aerogenes 1204048 (membrane impermeability), [PMBN] 0, Table 4a",>32
same,MIC,"[6]; E. aerogenes 1204048 (membrane impermeability), [PMBN] 100, Table 4a",12
same,MIC,"[6]; E. aerogenes 1204048 (membrane impermeability), [PMBN] 200, Table 4a",6
same,MIC,"[6]; E. aerogenes 1204048 (membrane impermeability), [PMBN] 300, Table 4a",3
same,MIC,"[6]; E. aerogenes 1204048, [PMBN] 0, Table 3",16
same,MIC,"[6]; E. aerogenes 1204048, [PMBN] MIC/5",0.5
same,MIC,"[6]; E. aerogenes 1204048, [PMBN] MIC/8",1
same,MIC,"[6]; E. aerogenes 1204048, [PMBN] MIC/10",2
same,MIC,"[7]; E. coli 1204043 (membrane impermeability), [PMBN] 0, Table 4a, in µg/mL",>32
same,MIC,"[7]; E. coli 1204043 (membrane impermeability), [PMBN] 100, Table 4a, in µg/mL",6-8
same,MIC,"[7]; E. coli 1204043 (membrane impermeability), [PMBN] 200, Table 4a, in µg/mL",3-6
same,MIC,"[7]; E. coli 1204043 (membrane impermeability), [PMBN] 300, Table 4a, in µg/mL",3
same,MIC,"[7]; E. coli 1204043, [PMBN] 0, Table 3, in µg/mL",8
same,MIC,"[7]; E. coli 1204043, [PMBN] MIC/5, in µg/mL",1
same,MIC,"[7]; E. coli 1204043, [PMBN] MIC/8, in µg/mL",1
same,MIC,"[7]; E. coli 1204043, [PMBN] MIC/10, in µg/mL",2
same,MIC,"[7]; Escherichia coli, 1204043, E. coli 1204043 (porin−), [PMBN] 0, Table 4, read-out: MIC",24 µg/mL
same,MIC,"[7]; Escherichia coli, 1204043, E. coli 1204043 (porin−), [PMBN] 150 μg/ml, Table 4, read-out: MIC",1 µg/mL
same,MIC,"[7]; Escherichia coli, 1204043, E. coli 1204043 (porin−), [PMBN] 200 μg/ml, Table 4, read-out: MIC",0.25 µg/mL
same,MIC,"[8]; [PMBN] 0, Table 4a",1
same,MIC,"[8]; [PMBN] 100, Table 4a",12
same,MIC,"[8]; [PMBN] 200, Table 4a",3
same,MIC,"[8]; [PMBN] 300, Table 4a",6
same,MIC,"[9]; [PMBN] 0, Table 4a",>32
same,MIC,"[9]; [PMBN] 100, Table 4a",>32
same,MIC,"[9]; [PMBN] 200, Table 4a",>32
same,MIC,"[9]; [PMBN] 300, Table 4a",>32
same,MIC,"[10]; [PMBN] 0, Table 4a",1.5 µg/mL
same,MIC,"[10]; [PMBN] 100, Table 4a",1.5 µg/mL
same,MIC,"[10]; [PMBN] 200, Table 4a",0.75 µg/mL
same,MIC,"[10]; [PMBN] 300, Table 4a",0.75 µg/mL
same,MIC,"[11]; [PMBN] 0, Table 4a",3 µg/mL
same,MIC,"[11]; [PMBN] 100, Table 4a",3 µg/mL
same,MIC,"[11]; [PMBN] 200, Table 4a",3 µg/mL
same,MIC,"[11]; [PMBN] 300, Table 4a",3 µg/mL

# Source: patent publication US20180155757A1, “IDENTIFICATION OF BACTERIA THAT ARE RESISTANT TO CARBAPENEMS BY MEMBRANE IMPERVIOUSNESS” (BIOMÉRIEUX, priority 2015, published 2018)
